Measured values published in PMC6915728 (Nature Communications, 2019).
Like-named read-outs stand apart in the source and are kept apart here.

Legend:
[1] = test system: E. coli BW25113 overexpression strains (ASKA plasmids); assay: Minimum inhibitory concentration (MIC), serial broth dilution, single-gene overexpression strains vs empty-vector control; format: cell-based, Escherichia coli; settings: MIC of overexpression strain / MIC of empty-plasmid control, broth dilution, MS medium, 100 µM IPTG, 30 °C, 20-24 h, OD600, 3 replicates
Outline: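 E. coli overexpression strains grown in MS medium with chloramphenicol, induced with 100 µM IPTG for 1 h at 30 °C, then about half-million cells inoculated into 12-step AMP dilutions (typically 1.2-fold steps). OD600 read after 20–24 h at 30 °C with shaking; triplicate strains compared with empty-vector control.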

bacterial membrane = settings: literature mining; ref superscript numbers in the cell, listed in Supplementary Data 7 sheet References; cited from earlier work
Description: Supplement 41467_2019_13618_MOESM10_ESM.xlsx, sheet "AMP details" | column: Pore formation

E. coli = settings: previous laboratory evolution experiment; cited from earlier work
Description: The results presented in this study may have important implications for the development of AMP-based therapies. Previous works reported several instances of cross-resistance interactions between membrane-targeting peptides (Supplementary Data 1), however, the potential for cross-resistance across AMPs with different modes of action has remained poorly understood. Specifically, while cross-resistance between host and therapeutic AMPs is certainly a realistic danger, not all AMPs are equally prone to cross-resistance. Given the immense diversity of AMPs with major differences in physicochemical ...

[2] = test system: AMP-evolved E. coli lines; settings: ref Spohn et al 2019, cited from earlier work
Description: Supplement 41467_2019_13618_MOESM13_ESM.xlsx, sheet "Figure 6 and S15" | column: A comprehensive dataset of antimicrobial susceptibility of AMP-adapted lines to antimicrobial peptides (AMPs).

Which “Relative MIC” value ([1]; overexpression strain nikB) does the source give for “SWLSKTAKKLENSAKKRISEGIAIAIQGGPR [CP1, Cecropin P1, antimicrobial peptide, source Ascaris suum; disrupts cell membrane; cluster C1]” here?
Its value is 0.8.

What about the “Relative MIC” value ([1]; overexpression strain ptsN) of the same sequence?
Its value is 0.76.

And the “Relative MIC” value ([1]; overexpression strain yiaJ)?
The value was 0.8.

What about the “Pore formation (whether AMP makes pores in the bacterial membrane)” value (bacterial membrane) of the same sequence?
Its value is “Yes6-8”.

And the “Emergence of resistant lines in laboratory evolution” value (E. coli)?
Its value is “did not result in any significant resistant lines”.

And the “Relative change in MIC (MIC of the AMP-adpated line / MIC of the ancestral strain)” value ([2]; AMP-adapted line BAC5_3)?
The value was 1.1.

And the “Relative change in MIC (MIC of the AMP-adpated line / MIC of the ancestral strain)” value ([2]; AMP-adapted line BAC5_5)?
Its value is 1.2.

And the “Relative change in MIC (MIC of the AMP-adpated line / MIC of the ancestral strain)” value ([2]; AMP-adapted line BAC5_7)?
Its value is 1.

What about the “Relative change in MIC (MIC of the AMP-adpated line / MIC of the ancestral strain)” value ([2]; AMP-adapted line BAC5_10) of the same sequence?
The value was 1.

What about the “Relative change in MIC (MIC of the AMP-adpated line / MIC of the ancestral strain)” value ([2]; AMP-adapted line CAP18_2) of the same sequence?
Its value is 1.

And the “Relative change in MIC (MIC of the AMP-adpated line / MIC of the ancestral strain)” value ([2]; AMP-adapted line CAP18_5)?
Its value is 1.2.

And the “Relative change in MIC (MIC of the AMP-adpated line / MIC of the ancestral strain)” value ([2]; AMP-adapted line CAP18_6)?
Its value is 1.

And the “Relative change in MIC (MIC of the AMP-adpated line / MIC of the ancestral strain)” value ([2]; AMP-adapted line CAP18_8)?
Its value is 1.

And the “Relative change in MIC (MIC of the AMP-adpated line / MIC of the ancestral strain)” value ([2]; AMP-adapted line CAP18_10)?
Its value is 1.

And the “Relative change in MIC (MIC of the AMP-adpated line / MIC of the ancestral strain)” value ([2]; AMP-adapted line HBD3_3)?
Its value is 1.1.

What about the “Relative change in MIC (MIC of the AMP-adpated line / MIC of the ancestral strain)” value ([2]; AMP-adapted line HBD3_6) of the same sequence?
Its value is 1.1.

And the “Relative change in MIC (MIC of the AMP-adpated line / MIC of the ancestral strain)” value ([2]; AMP-adapted line HBD3_8)?
The value was 1.2.

And the “Relative change in MIC (MIC of the AMP-adpated line / MIC of the ancestral strain)” value ([2]; AMP-adapted line HBD3_10)?
Its value is 1.2.

And the “Relative change in MIC (MIC of the AMP-adpated line / MIC of the ancestral strain)” value ([2]; AMP-adapted line LL37_1)?
The value was 0.8.

And the “Relative change in MIC (MIC of the AMP-adpated line / MIC of the ancestral strain)” value ([2]; AMP-adapted line LL37_3)?
The value was 1.

And the “Relative change in MIC (MIC of the AMP-adpated line / MIC of the ancestral strain)” value ([2]; AMP-adapted line LL37_6)?
Its value is 0.9.

And the “Relative change in MIC (MIC of the AMP-adpated line / MIC of the ancestral strain)” value ([2]; AMP-adapted line LL37_7)?
Its value is 1.1.

And the “Relative change in MIC (MIC of the AMP-adpated line / MIC of the ancestral strain)” value ([2]; AMP-adapted line LL37_10)?
Its value is 0.9.

What about the “Relative change in MIC (MIC of the AMP-adpated line / MIC of the ancestral strain)” value ([2]; AMP-adapted line PEX_1) of the same sequence?
The value was 1.1.

What about the “Relative change in MIC (MIC of the AMP-adpated line / MIC of the ancestral strain)” value ([2]; AMP-adapted line PEX_4) of the same sequence?
The value was 1.2.

And the “Relative change in MIC (MIC of the AMP-adpated line / MIC of the ancestral strain)” value ([2]; AMP-adapted line PEX_5)?
The value was 1.1.

And the “Relative change in MIC (MIC of the AMP-adpated line / MIC of the ancestral strain)” value ([2]; AMP-adapted line PEX_6)?
Its value is 1.

What about the “Relative change in MIC (MIC of the AMP-adpated line / MIC of the ancestral strain)” value ([2]; AMP-adapted line PEX_7) of the same sequence?
Its value is 1.3.

What about the “Relative change in MIC (MIC of the AMP-adpated line / MIC of the ancestral strain)” value ([2]; AMP-adapted line PR39_1) of the same sequence?
The value was 1.1.

What about the “Relative change in MIC (MIC of the AMP-adpated line / MIC of the ancestral strain)” value ([2]; AMP-adapted line PR39_2) of the same sequence?
The value was 1.1.

And the “Relative change in MIC (MIC of the AMP-adpated line / MIC of the ancestral strain)” value ([2]; AMP-adapted line PR39_5)?
Its value is 1.

What about the “Relative change in MIC (MIC of the AMP-adpated line / MIC of the ancestral strain)” value ([2]; AMP-adapted line PR39_7) of the same sequence?
The value was 1.

What about the “Relative change in MIC (MIC of the AMP-adpated line / MIC of the ancestral strain)” value ([2]; AMP-adapted line PR39_10) of the same sequence?
Its value is 0.8.

And the “Relative change in MIC (MIC of the AMP-adpated line / MIC of the ancestral strain)” value ([2]; AMP-adapted line PROA_2)?
The value was 1.1.

What about the “Relative change in MIC (MIC of the AMP-adpated line / MIC of the ancestral strain)” value ([2]; AMP-adapted line PROA_3) of the same sequence?
The value was 0.9.

What about the “Relative change in MIC (MIC of the AMP-adpated line / MIC of the ancestral strain)” value ([2]; AMP-adapted line PROA_7) of the same sequence?
Its value is 0.8.

What about the “Relative change in MIC (MIC of the AMP-adpated line / MIC of the ancestral strain)” value ([2]; AMP-adapted line PROA_8) of the same sequence?
The value was 0.9.

And the “Relative change in MIC (MIC of the AMP-adpated line / MIC of the ancestral strain)” value ([2]; AMP-adapted line PROA_9)?
The value was 1.1.

And the “Relative change in MIC (MIC of the AMP-adpated line / MIC of the ancestral strain)” value ([2]; AMP-adapted line PXB_2)?
The value was 1.3.

And the “Relative change in MIC (MIC of the AMP-adpated line / MIC of the ancestral strain)” value ([2]; AMP-adapted line PXB_5)?
The value was 1.

And the “Relative change in MIC (MIC of the AMP-adpated line / MIC of the ancestral strain)” value ([2]; AMP-adapted line PXB_6)?
Its value is 1.2.

And the “Relative change in MIC (MIC of the AMP-adpated line / MIC of the ancestral strain)” value ([2]; AMP-adapted line PXB_8)?
Its value is 1.1.

And the “Relative change in MIC (MIC of the AMP-adpated line / MIC of the ancestral strain)” value ([2]; AMP-adapted line PXB_10)?
Its value is 1.2.
